In patent publication US10087187B2, “Imidazopyridazine derivatives as PI3KB inhibitors” (Janssen Pharmaceutica NV, priority 2014, dated 2018):
Where two headings read alike, the source gives them in different places.

Columns and labels:
PIK3Cα_h = PIK3Cα_h (Homo sapiens (Human), UniProt P42336); experiment: KINOMEscan enzyme binding assay, PIK3Cα; conditions: DiscoveRx
Procedure: (§1) Enzyme Binding Assays (KINOMEscan®) Kinase enzyme binding affinities of compounds disclosed herein were determined using the KINOMEscan technology performed by DiscoveRx Corporation, San Diego, Calif., USA (www.kinomescan.com).

PIK3Cγ_h = PIK3Cγ_h (Homo sapiens (Human), UniProt P48736); experiment: KINOMEscan enzyme binding assay, PIK3Cγ; conditions: DiscoveRx
Chain of PIK3Cγ_h (P48736 whole entry): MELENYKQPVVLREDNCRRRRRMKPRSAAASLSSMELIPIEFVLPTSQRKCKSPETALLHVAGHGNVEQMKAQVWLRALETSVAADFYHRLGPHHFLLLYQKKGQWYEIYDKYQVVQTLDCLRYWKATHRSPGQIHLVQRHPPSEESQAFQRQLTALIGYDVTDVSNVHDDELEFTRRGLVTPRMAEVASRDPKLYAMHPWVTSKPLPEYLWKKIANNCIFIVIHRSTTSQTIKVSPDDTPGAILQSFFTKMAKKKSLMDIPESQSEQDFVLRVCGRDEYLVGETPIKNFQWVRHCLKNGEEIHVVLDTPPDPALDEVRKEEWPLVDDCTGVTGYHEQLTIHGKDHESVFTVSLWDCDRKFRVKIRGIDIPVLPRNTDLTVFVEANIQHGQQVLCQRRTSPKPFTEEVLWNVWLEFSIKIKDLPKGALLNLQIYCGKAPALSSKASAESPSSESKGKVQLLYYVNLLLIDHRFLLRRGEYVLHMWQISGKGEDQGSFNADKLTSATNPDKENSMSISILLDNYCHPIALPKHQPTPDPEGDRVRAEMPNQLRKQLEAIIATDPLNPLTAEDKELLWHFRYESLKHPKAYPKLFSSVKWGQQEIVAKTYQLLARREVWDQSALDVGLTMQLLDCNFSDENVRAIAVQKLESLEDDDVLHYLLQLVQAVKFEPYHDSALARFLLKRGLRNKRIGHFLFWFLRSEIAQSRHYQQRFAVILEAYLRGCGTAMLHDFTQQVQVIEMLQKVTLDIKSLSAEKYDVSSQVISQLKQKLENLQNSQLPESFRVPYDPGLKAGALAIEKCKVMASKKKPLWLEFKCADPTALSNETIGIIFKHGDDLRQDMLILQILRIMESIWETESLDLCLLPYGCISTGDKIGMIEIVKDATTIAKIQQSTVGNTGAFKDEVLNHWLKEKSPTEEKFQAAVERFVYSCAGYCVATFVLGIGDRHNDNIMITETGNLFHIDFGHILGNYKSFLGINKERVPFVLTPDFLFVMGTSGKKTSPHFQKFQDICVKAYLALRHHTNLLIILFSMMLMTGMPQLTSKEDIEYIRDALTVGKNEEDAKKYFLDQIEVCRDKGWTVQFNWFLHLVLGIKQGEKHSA
Procedure: as §1

PIK3Cδ_h = PIK3Cδ_h (Homo sapiens (Human), UniProt O00329); experiment: KINOMEscan enzyme binding assay, PIK3Cδ; conditions: DiscoveRx
Chain of PIK3Cδ_h (O00329 whole entry): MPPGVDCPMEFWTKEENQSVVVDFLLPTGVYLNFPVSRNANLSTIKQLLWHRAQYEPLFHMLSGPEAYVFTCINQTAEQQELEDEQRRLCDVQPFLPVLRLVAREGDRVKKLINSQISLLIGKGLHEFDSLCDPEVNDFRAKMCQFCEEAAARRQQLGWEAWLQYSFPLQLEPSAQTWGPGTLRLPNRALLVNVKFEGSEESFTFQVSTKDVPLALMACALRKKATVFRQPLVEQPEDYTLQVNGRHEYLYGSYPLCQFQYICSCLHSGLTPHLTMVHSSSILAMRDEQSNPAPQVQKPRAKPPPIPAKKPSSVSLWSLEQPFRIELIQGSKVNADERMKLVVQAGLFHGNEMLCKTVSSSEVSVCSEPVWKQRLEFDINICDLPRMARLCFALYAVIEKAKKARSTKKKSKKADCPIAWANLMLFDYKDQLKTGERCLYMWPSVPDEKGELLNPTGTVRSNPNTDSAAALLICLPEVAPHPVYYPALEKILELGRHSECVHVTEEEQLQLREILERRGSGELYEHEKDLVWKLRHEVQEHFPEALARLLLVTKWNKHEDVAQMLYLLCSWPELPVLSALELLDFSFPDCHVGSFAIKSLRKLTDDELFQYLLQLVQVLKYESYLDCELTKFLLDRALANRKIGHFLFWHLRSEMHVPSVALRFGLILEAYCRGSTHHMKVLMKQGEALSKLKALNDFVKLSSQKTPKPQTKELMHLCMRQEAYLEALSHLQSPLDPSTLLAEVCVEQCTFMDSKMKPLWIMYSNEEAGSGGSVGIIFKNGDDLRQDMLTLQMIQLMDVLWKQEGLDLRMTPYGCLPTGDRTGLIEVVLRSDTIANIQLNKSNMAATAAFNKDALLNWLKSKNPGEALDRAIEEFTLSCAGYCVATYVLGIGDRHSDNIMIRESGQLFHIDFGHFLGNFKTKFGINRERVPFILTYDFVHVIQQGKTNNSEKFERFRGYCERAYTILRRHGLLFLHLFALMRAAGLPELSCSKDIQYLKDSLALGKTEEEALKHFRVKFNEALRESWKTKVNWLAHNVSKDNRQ
Procedure: as §1, with “(www.kinomescan.com). Table A reports the obtained Kd values (nM), with the Kd being the inhibitor binding constant: […]” for “(www.kinomescan.com).”

[1] = test system: Akt phosphorylated at Ser473 in PC-3 cells; experiment: Cellular assay: phosphorylation of Akt (Ser473) in PC-3 cells, MSD ELISA; assay type: cell-based; conditions: 60 min incubation with compound, read-out: IC50 pAkt_S473
Procedure: (§2) Cellular activity of PI3Kβ inhibitors was determined by quantifying the phosphorylation of Akt in PC-3 cells. Akt phosphorylated at Ser473 and Thr308 were measured using an enzyme-linked immunosorbent assay (ELISA; Meso Scale Discovery (MSD), Gaithersburg, Md.) and specific primary antibodies from MSD.
(§3) On day 1, PC3 cells (ATCC # […]) were seeded into PerkinElmer MW96 plates at 25.000 cells per well, in 75 μl complete culture medium (DMEM (Dulbecco's Modified Eagle's Medium) high glucose, AQmedia™, D0819, Sigma-Aldrich) containing 10% heat inactivated FCS (Fetal Bovine Serum) and incubated at 37° C., 5% CO2 during 24 hours. On day 2, compound or DMSO (dimethyl sulfoxide) (0.3%) was added and cells were further incubated for 60 min at 37° C., 5% CO2 in a total volume of 100 μl of medium.
(§4) The phosphoprotein assay was executed according to vendor instructions in the Phospho-Akt (Ser473) Assay Whole Cell Lysate Kit (MSD # K15100D-3) and the Phospho-Akt (Thr308) Assay Whole Cell Lysate Kit (MSD # K151DYD-3) using the lysis, blocking and wash buffer provided.
(§5) Briefly, at the end of the cell treatment period, media were removed by aspiration and adherent cells were lysed in 50 μl ice-cold lysis buffer. MSD plates are supplied pre-coated with capture antibodies for Phospho-Akt (Ser473 and Thr308). After blocking, lysates from tissue culture plates were added and plates were washed. Then, a solution containing the detection antibody (anti-total Akt conjugated with an electrochemiluminescent compound-MSD Sulfo-tag label) was added. The signals were detected using an MSD SECTOR Imager 6000 and are proportional to the phospho-Akt titres.
(§6) Data were processed. The percentage of inhibition was plotted against the log concentration of test compounds, and the sigmoidal log concentration-effect curve of best fit was calculated by nonlinear regression analysis. From these concentration-response curves, the IC50 values were calculated. Five concentrations were used for curve fitting.

MTOR_h = MTOR_h (Homo sapiens (Human), UniProt P42345); experiment: KINOMEscan enzyme binding assay, MTOR; conditions: DiscoveRx
Procedure: as §1

[2] = test system: Akt phosphorylated at Thr308 in PC-3 cells; experiment: Cellular assay: phosphorylation of Akt (Thr308) in PC-3 cells, MSD ELISA; assay type: cell-based; conditions: 60 min incubation with compound, read-out: IC50 pAkt_Thr308
Procedure: as §2, §3, §4, §5, §6

PIK3Cβ_h = PIK3Cβ_h (Homo sapiens (Human), UniProt P42338); experiment: KINOMEscan enzyme binding assay, PIK3Cβ; conditions: DiscoveRx
Chain of PIK3Cβ_h (P42338 whole entry): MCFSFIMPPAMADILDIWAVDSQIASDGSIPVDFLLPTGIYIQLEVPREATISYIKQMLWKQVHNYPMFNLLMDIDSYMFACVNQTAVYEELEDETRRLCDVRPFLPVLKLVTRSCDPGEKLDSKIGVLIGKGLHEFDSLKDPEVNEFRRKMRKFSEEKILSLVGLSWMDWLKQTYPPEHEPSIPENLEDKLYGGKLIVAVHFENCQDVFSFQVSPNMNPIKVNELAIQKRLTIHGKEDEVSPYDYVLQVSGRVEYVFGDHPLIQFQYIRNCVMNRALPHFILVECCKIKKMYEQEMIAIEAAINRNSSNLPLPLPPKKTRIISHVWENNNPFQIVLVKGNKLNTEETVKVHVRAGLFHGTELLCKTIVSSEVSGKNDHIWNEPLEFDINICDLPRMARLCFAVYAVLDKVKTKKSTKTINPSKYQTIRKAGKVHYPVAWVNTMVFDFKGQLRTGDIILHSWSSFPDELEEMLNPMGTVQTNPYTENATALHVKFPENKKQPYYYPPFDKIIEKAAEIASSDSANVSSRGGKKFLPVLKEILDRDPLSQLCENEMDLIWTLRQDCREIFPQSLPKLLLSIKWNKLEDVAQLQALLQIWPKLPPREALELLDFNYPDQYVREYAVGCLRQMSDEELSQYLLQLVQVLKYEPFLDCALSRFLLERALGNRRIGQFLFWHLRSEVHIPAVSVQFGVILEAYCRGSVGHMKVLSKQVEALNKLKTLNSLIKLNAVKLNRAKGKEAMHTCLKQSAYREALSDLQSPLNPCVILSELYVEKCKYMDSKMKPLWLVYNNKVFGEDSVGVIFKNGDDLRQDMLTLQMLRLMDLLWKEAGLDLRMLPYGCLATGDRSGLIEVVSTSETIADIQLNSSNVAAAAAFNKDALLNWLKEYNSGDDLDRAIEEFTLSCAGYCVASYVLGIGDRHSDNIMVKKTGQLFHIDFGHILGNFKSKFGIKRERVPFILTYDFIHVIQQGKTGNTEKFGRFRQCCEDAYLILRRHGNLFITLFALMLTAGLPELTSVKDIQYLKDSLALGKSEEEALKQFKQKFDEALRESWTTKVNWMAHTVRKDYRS
Procedure: as §1, with “(www.kinomescan.com). Table A reports the obtained Kd values (nM), with the Kd being the inhibitor binding constant: […]” for “(www.kinomescan.com).”

Chain of PIK3Cα_h (P42336 whole entry): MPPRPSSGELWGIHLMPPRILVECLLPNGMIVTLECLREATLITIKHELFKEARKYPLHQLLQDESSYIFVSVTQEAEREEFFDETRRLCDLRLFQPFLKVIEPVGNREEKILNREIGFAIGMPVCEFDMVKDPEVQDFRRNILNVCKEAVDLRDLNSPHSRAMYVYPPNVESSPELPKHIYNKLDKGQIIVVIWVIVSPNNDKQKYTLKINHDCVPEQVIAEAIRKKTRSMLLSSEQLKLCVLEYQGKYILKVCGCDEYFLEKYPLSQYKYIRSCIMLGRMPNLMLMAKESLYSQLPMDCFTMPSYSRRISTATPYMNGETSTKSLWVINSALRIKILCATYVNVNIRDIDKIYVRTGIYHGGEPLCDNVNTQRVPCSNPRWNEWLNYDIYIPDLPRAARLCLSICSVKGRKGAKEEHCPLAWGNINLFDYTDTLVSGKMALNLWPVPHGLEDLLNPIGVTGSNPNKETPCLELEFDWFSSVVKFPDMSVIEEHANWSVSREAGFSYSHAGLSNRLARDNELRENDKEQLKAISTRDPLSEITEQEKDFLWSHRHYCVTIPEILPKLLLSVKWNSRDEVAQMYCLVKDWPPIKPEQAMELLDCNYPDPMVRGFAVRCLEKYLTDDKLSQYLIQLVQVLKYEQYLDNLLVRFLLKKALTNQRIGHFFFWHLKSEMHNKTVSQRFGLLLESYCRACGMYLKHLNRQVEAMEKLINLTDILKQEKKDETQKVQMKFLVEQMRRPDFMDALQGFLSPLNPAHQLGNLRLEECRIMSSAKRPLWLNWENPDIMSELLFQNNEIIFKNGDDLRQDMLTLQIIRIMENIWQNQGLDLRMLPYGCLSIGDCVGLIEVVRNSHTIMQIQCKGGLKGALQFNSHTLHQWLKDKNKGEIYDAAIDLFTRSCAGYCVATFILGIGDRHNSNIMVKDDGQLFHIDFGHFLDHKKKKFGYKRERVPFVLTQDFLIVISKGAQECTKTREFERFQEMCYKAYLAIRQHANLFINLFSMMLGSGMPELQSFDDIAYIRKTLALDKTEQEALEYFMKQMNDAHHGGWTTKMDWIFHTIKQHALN

SMILES	Kd (PIK3Cα_h) [nM]	Kd (PIK3Cγ_h) [nM]	Kd (PIK3Cδ_h) [nM]	IC50 ([1]; Homo sapiens, PC-3, 1 h) [nM]	Kd (MTOR_h) [nM]	IC50 ([2]; Homo sapiens, PC-3, 1 h) [nM]	Kd (PIK3Cβ_h) [nM]	IC50 [1] [nM]	IC50 [2] [nM]
Cc1nc2c(C(N)=O)cc(N3CCOCC3)nn2c1Cc1cccc(C(F)(F)F)c1C [Compound 10]	> 30200	> 30200	12600	501	> 30200	> 513	20		
Nc1cc(N2CCOCC2)nn2c(Cc3cccc(C(F)(F)F)c3C3CCNCC3)c(CO)nc12 [Compound 104]	9330	15100	138	78	> 30200	29	0.7		
Cc1nc2c(N)cc(N3CCOCC3)nn2c1Cc1cccc(F)c1CNC(C)CO (stereo not drawn) [Compound 103]	> 30200	31600	1000	> 423	24500	> 382	74		
Cc1c(Cc2c(CO)nc3c(-c4c[nH]cn4)cc(N4CCOC(C)C4)nn23)cccc1C(F)(F)F (stereo not drawn) [Compound 27]	617	479	58		447		2.4	42	14
Nc1cc(N2CCOCC2)nn2c(Cc3cccc(F)c3C3CCN(CCO)CC3)c(CO)nc12 [Compound 108]	21400	13600	376	> 513	18700	> 513	14		
Cc1c(Cc2c(CNCCO)nc3c(N)cc(N4CCOCC4)nn23)cccc1C(F)(F)F [Compound 3]	9550	15500	105	120	7940	~71	1.1		
Cc1c(Cc2c(CO)nc3c(C(=O)O)cc(N4CCOCC4)nn23)cccc1C(F)(F)F [Compound 22]	1580	> 15100	48	> 513	10700	> 513	1.2		
Cc1c(Cc2c(CO)nc3c(N)cc(N4CCOCC4)nn23)cccc1C(F)(F)F [Compound 14c]	> 10000	> 30200	194	50	5250	~49	1.2		
Cc1c(Cc2c(CO)nc3c(-c4c[nH]cn4)cc(N4CCOC(C)C4)nn23)cccc1C(F)(F)F (stereo not drawn) [Compound 25]	> 30200	> 30200	> 30200		1180		200	447	> 513
Cc1c(Cc2c(CNCCS(C)(=O)=O)nc3c(N)cc(N4CCOCC4)nn23)cccc1C(F)(F)F [Compound 2]	8130	> 30200	178	138	23400	186	1.4		
Cc1nc2c(N)cc(N3CCOCC3)nn2c1Cc1cccc(F)c1C1CCNCC1 [Compound 106]	2750	5010	372	174	> 30200	129	0.5		
Cc1c(Cc2c(CNCCO)nc3c(-c4ncc[nH]4)cc(N4CCOCC4)nn23)cccc1C(F)(F)F [Compound 4]	933	1150	74	~135	> 3310	~120	3.3		
CC(=O)OCc1nc2c(N)cc(N3CCOCC3)nn2c1Cc1cccc(C(F)(F)F)c1C [Compound 61]	> 30200	> 30200	1660	105	> 30200	151	12		
CC(=O)NCc1nc2c(-c3ncc[nH]3)cc(N3CCOCC3)nn2c1Cc1cccc(C(F)(F)F)c1C [Compound 18]	> 30200	> 30200	59	33	> 30200	11	2		
Cc1c(Cc2c(CO)nc3c(-c4ccn[nH]4)cc(N4CCOCC4)nn23)cccc1C(F)(F)F [Compound 21]	1580	617	240	148	178	50	9		
Cc1nc2c(N)cc(N3CCOCC3)nn2c1Nc1cccc(F)c1CNC(C)CO (stereo not drawn) [Compound 71]	17000	> 30200	75	246	> 30200	107	6		
CCc1c(F)cccc1Cc1c(CO)nc2c(N)cc(N3CCOCC3)nn12 [Compound 99]	10500	3310	832	257	1620	200	8.3		
Cc1nc2c(N)cc(N3CCOCC3)nn2c1Cc1cccc2c1CN(C(C)C)CC2 [Compound 110]	> 30200	> 30200	2380	324	> 30200	222	513		
Cc1c(F)cccc1Cc1c(CNCCO)nc2c(N)cc(N3CCOCC3)nn12 [Compound 97]	11200	3720	200	79	912	40	1.6		

The remaining lines, values ahead:

Kd (PIK3Cα_h) [nM]	Kd (PIK3Cγ_h) [nM]	Kd (PIK3Cδ_h) [nM]	IC50 ([1]; Homo sapiens, PC-3, 1 h) [nM]	Kd (MTOR_h) [nM]	IC50 ([2]; Homo sapiens, PC-3, 1 h) [nM]	Kd (PIK3Cβ_h) [nM]	IC50 [1] [nM]	IC50 [2] [nM]	SMILES
1180	4570	129	59	2190	~42	2.6			Cc1c(Cc2c(C(C)O)nc3c(-c4c[nH]cn4)cc(N4CCOCC4)nn23)cccc1C(F)(F)F (stereo not drawn) [Compound 30]
3240	24000	28	89	> 30200	~72	0.3			Cc1nc2c(N)cc(N3CCOCC3)nn2c1Nc1cccc(C(F)(F)F)c1C1CCN(CCO)CC1 [Compound 73]
10500	20900	47	59	> 30200	44	2.5			Cc1nc2c(N)cc(N3CCOCC3)nn2c1Nc1cccc(C(F)(F)F)c1CN1CCC(S(C)(=O)=O)C1 (stereo not drawn) [Compound 47]
669	4050	58	~331	21700	195	0.9			Cc1nc2c(C(=O)O)cc(N3CCOCC3)nn2c1Nc1cccc(C(F)(F)F)c1C [Compound 36]
339	891	9	34	6310	26	0.7			Cc1nc2c(-c3c[nH]cn3)cc(N3CCOCC3)nn2c1Nc1cccc(C(F)(F)F)c1CN1CCN(C)CC1 [Compound 57]
2040	3900	372	105	20100	60	4			Cc1nc2c(C(N)=O)cc(N3CCOCC3)nn2c1Nc1cccc(C(F)(F)F)c1C [Compound 40]
> 3310	> 30200	525	269	> 10000	135	15			Cc1nc2c(-c3ncc[nH]3)cc(N3CCOCC3)nn2c1Cc1cccc(C(F)(F)F)c1C [Compound 7]
16200	> 30200	490	200	> 30200	98	12			Cc1nc2c(N)cc(N3CCOCC3)nn2c1Nc1cccc(C(F)(F)F)c1CN1CCC(S(C)(=O)=O)CC1 [Compound 54]
